According to paper PMC8474116, “Discovery of Novel Acetamide-Based Heme Oxygenase-1 Inhibitors with Potent In Vitro Antiproliferative Activity” (Journal of Medicinal Chemistry, 2021):

Legend:
[1] = system: U87MG cells; experiment: MTT cell viability assay, U87MG; assay type: cell-based, human; conditions: 48 h
Procedure: (§1) Experiments were performed on human GBM cell lines U87MG (ATCCC number #HTB-14) and A172 (ATCCC #CRL-1620) on DU145 (ATCC HTB-81) and human lung adenocarcinoma A549 (ATCC CCL-185-LUC2). All cell lines were obtained from the American Type Culture Collection (ATCC, Rockville, MD). Cells were grown in Dulbecco’s modified Eagle’s medium (DMEM) supplemented with 10% of heat-inactivated fetal bovine serum (FBS), 100 U/mL of penicillin, and 100 μg/mL of streptomycin (Sigma-Aldrich, Steinheim, Germany). Cells were incubated at 37 °C in a humidified atmosphere with 5% CO2.
(§2) The effect of selected compounds 7i and 7l–p on cell viability was assessed by performing an MTT assay. Cells were seeded into 96-well plates at a density of 7 × 10^3 cells/well in 100 μL of culture medium. After 24 h, cells were treated with selected compounds at three different concentrations (1 μM, 10 μM, and 50 μM) for 48 h. Following treatments, 0.5 mg/mL of 3-[4,5-dimethylthiazol-2-yl]-2,5-diphenyltetrazolium bromide (MTT) (Sigma-Aldrich) was added to each well and incubated for 4 h at 37 °C. Finally, dimethyl-sulfoxide (DMSO) was used to dissolve formazan salts, and absorbance was measured at 570 nm in a microplate reader (Biotek Synergy-HT). Eight replicate wells were used for each group.

[2] = target: T1, HO-1 (Rattus norvegicus, UniProt P06762); experiment: HO-1 enzymatic activity, rat spleen microsomal fraction (bilirubin formation); assay type: biochemical; conditions: for IC50: rat spleen microsomal fraction, mean of triplicate ± SD; for SI (HO-2/HO-1): ratio of HO-2 and HO-1 IC50
T1 construct: selected to use the most native (i.e., closest to in vivo) forms of HO-1 and HO-2; from tissue; host or cells: rat spleen (male Sprague-Dawley), microsomal fraction
T1 sequence (P06762 1-289): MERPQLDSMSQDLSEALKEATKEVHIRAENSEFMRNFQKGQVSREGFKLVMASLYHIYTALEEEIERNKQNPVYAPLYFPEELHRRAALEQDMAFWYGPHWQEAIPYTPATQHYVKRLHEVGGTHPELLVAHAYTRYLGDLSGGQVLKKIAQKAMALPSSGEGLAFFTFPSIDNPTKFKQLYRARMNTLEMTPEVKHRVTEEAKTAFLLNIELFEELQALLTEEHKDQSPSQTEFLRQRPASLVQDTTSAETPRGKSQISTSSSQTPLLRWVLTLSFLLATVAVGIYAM
Procedure: (§3) HO-1 and HO-2 were obtained, respectively, from the rat spleen and brain as the microsomal fraction prepared by differential centrifugation; the dominance of HO-1 protein in the rat spleen and HO-2 in the rat brain has been well documented.[24] These particular microsomal preparations were selected to use the most native (i.e., closest to in vivo) forms of HO-1 and HO-2. Spleen and brain (Sprague-Dawley rats) microsomal fractions were prepared according to the procedure outlined by Ryter et al.[2] The experiments reported in the present paper complied with the current Italian law and met the guidelines of the Institutional Animal Care and Use Committee of the Ministry of Health (Directorate General for Animal Health and Veterinary Medicines, Italy) “Dosing of enzymatic activities in rat microsomes” (2018–2022), project code 02769.N.VLY. The experiments were performed in male Sprague-Dawley albino rats (150 g body weight and age 45 d). They had free access to water and were kept at room temperature with a natural photoperiod (12 h light–12 h dark cycle). For measuring HO-1 and HO-2 activities, each rat was sacrificed and their spleen and brain were excised and weighed. A homogenate (15%, w/v) of spleens and brains pooled from four rats was prepared in ice-cold HO-homogenizing buffer (50 mM Tris buffer, pH 7.4, containing 0.25 M sucrose) using a Potter–Elvehjem homogenizing system with a Teflon pestle. The microsomal fraction of rat spleen and brain homogenate was obtained by centrifugation at 10 000g for 20 min at 4 °C, followed by centrifugation of the supernatant at 100 000g for 60 min at 4 °C. The 100 000g pellet (microsomes) was resuspended in 100 mM of potassium phosphate buffer, pH 7.8, containing 2 mM MgCl2 with a Potter–Elvehjem homogenizing system. The rat spleen and brain microsomal fractions were divided into equal aliquots, placed into microcentrifuge tubes, and stored at −80 °C for up to 2 months.
(§4) Liver cytosol has been used as a source of biliverdin reductase. Rat liver was perfused through the hepatic portal vein with cold 0.9% NaCl; then, it was cut and flushed with 2 × 20 mL of ice-cold PBS to remove all of the blood. Liver tissue was homogenized in 3 volumes of a solution containing 1.15% KCl w/v and Tris buffer 20 mM, pH 7.8 on ice. Homogenates were centrifuged at 10 000g for 20 min at 4 °C. The supernatant was decanted and centrifuged at 100 000g for 1 h at 4 °C to sediment the microsomes. The 100 000g supernatant was saved and then stored in small amounts at −80 °C after its protein concentration was measured.
(§5) The HO-1 and HO-2 activities were determined by measuring the bilirubin formation using the difference in absorbance at 464–530 nm, as described by Ryter et al.[2] Reaction mixtures (500 μL) consisted of 20 mM of Tris–HCl, pH 7.4, (1 mg/mL) microsomal extract, 0.5–2 mg/mL of biliverdin reductase, 1 mM of NADPH, 2 mM of glucose 6-phosphate (G6P), 1 U of G6P dehydrogenase, 25 μM of hemin, and 10 μL of DMSO (or the same volume of DMSO solution of test compounds to a final concentration of 100, 10, and 1 μM). Incubations were carried out for 60 min at 37 °C in a circulating water bath in the dark. Reactions were stopped by adding the same volume of chloroform. After recovering the chloroform phase, the amount of bilirubin formed was measured with a double-beam spectrophotometer as OD464–530 nm (extinction coefficient, 40 mM/cm^–1 for bilirubin). One unit of the enzyme was defined as the amount of enzyme catalyzing the formation of 1 nmol of bilirubin/mg protein/h.

[3] = target: T2, HO-2 (Rattus norvegicus, UniProt P23711); experiment: HO-2 enzymatic activity, rat brain microsomal fraction (bilirubin formation); assay type: biochemical; conditions: mean of triplicate ± SD
T2 construct: selected to use the most native (i.e., closest to in vivo) forms of HO-1 and HO-2; from tissue; host or cells: rat brain (male Sprague-Dawley), microsomal fraction
T2 sequence (P23711 1-315): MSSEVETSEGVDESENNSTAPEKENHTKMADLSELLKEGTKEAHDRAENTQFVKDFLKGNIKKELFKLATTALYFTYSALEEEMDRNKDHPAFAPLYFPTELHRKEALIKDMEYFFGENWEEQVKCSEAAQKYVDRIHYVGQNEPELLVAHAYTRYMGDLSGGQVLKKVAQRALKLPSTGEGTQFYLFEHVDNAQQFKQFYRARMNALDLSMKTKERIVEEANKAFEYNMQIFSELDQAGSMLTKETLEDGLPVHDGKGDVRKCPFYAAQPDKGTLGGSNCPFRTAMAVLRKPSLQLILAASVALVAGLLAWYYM
Procedure: as §3, §4, §5

[4] = system: A172 cells; experiment: MTT cell viability assay, A172; assay type: cell-based, human; conditions: 48 h
Procedure: as §1, §2

[5] = at both concentrations 1 and 10 μM
[6] = all tested concentrations (1, 10, 50 μM)

Row | melting point [°C] | fold more selective for the inducible isoform (HO-1 over HO-2) [2] | IC50 [2] [µM] | SI (HO-2/HO-1) [2] | IC50 [3] [µM] | SMILES | cell viability reduction [1, 5] | cell viability reduction (in words) [4, 6] | cell viability reduction ([1]; at all of the tested concentrations (1, 10, 50 μM)) | HO-1 vs HO-2 selectivity (in words) [2] | cell viability reduction (in words) ([4]; 10 μM) | cell viability reduction (in words) ([4]; 50 μM)
1 | 119 to 121 | 9 fold | 1.2 ± 0.11 | 9.3 | 11.2 ± 0.18 | CN(C(=O)Cn1ccnc1)C(c1ccccc1)c1ccc(OCc2ccccc2)cc1 (stereo not drawn) [7o, N-((4-(Benzyloxy)phenyl)(phenyl)methyl)-2-(1H-imidazol-1-yl)-N-methylacetamide] | around 20% | remarkable reduction of cell viability | – | – | – | –
2 | 69 to 71 | about 48 fold | 0.95 ± 0.09 | 48.3 | 45.9 ± 1.67 | CN(C(=O)Cn1ccnc1)C(c1ccccc1)c1ccc(I)cc1 (stereo not drawn) [7n, 2-(1H-Imidazol-1-yl)-N-((4-iodophenyl)(phenyl)methyl)-N-methylacetamide] | more than 30% | – | – | – | milder activity | only at 50 μM

Row | SMILES | melting point [°C] | fold more selective for the inducible isoform (HO-1 over HO-2) [2] | IC50 [2] [µM] | SI (HO-2/HO-1) [2] | IC50 [3] [µM] | cell viability reduction [1, 5] | cell viability reduction (in words) [4, 6] | cell viability reduction ([1]; at all of the tested concentrations (1, 10, 50 μM)) | HO-1 vs HO-2 selectivity (in words) [2] | cell viability reduction (in words) ([4]; 10 μM) | cell viability reduction (in words) ([4]; 50 μM)
3 | CN(C(=O)Cn1ccnc1)C(c1ccccc1)c1ccc(Cl)cc1 (stereo not drawn) [7l, N-((4-Chlorophenyl)(phenyl)methyl)-2-(1H-imidazol-1-yl)-N-methylacetamide] | – | – | 0.95 ± 0.04 | 1.3 | 1.2 ± 0.07 | – | remarkable reduction of cell viability | more than 60% | superimposable HO-1 and HO-2 IC50 values | – | –
